From publication PMC6936879, “Inhibiting the copper efflux system in microbes as a novel approach for developing antibiotics” (PLoS ONE, 2019)

How the values were obtained:
Type in all cases: cell-based
[1] = system: E. coli (BL21;DE3); experiment: E. coli growth rate experiment (O.D. 600 nm) under copper stress; conditions: M9 medium, 37 °C, value after 14 h incubation, 5 μM Cu(II) chloride in assay (sentence does not say with or without Cu(II)), mean ± SE, n = 5
Experimental: E. coli (BL21;DE3) growth rates were evaluated in 96-well microplates: in 200 μl of a poor medium comprising M9 medium. Incubation was for 16 h at 37°C with Copper(II) chloride (Sigma-Aldrich, St. Louis, MO, USA) at a concentration of 5 μM. Absorbance at 600 nm was measured every 30 min after stirring for 5 s in a 96-well plate reader (SPL Life Sciences, Gyeonggi, Korea). The buffer background was auto-subtracted. Each experiment was repeated five times under identical conditions.
Next, E. coli were grown in M9 medium for 16 h, and their growth rate was evaluated in the absence and presence of Cu(II) in the medium. In each sample, a different peptide was introduced to the medium, with the kanamycin as a positive control. […] Growth rate values for all peptides at various concentrations after 14 h of incubation are presented in Fig 3 (the growth rate curves are presented in Figs E to F in S1 File).
Fig 3 Effect of test peptides on the E. coli growth rate. E. coli cultures were grown as described in Methods. The growth rate values after a 14 h incubation in the medium in the presence (gray lines) and absence (black lines) of Cu(II). Concentrations of the test peptides: A. 50 μM, B. 75 μM, C. 100 μM, and D. 125 μM. *p < 0.05, MEAN ± SE, n = 5, a comparison between the values in the presence and absence of Cu(II). #p < 0.05, MEAN ± SE, n = 5, in the presence of Cu(II) and comparing between values of a buffer and peptide. t-test was used for the statistic evaluation.

[2] = system: E. coli (BL21); experiment: Kirby-Bauer test (disc diffusion); conditions: 2 mm radius discs, LB petri dishes, 37 °C overnight
[3] = system: E. coli (BL21;DE3); experiment: E. coli viability assay (LIVE/DEAD fluorescence imaging); conditions: peptide 125 μM; LIVE/DEAD staining, M9 medium, confocal imaging, cell counts with ImageJ; mean ± SE, n = 3
Experimental: E. coli (BL21;DE3) were dyed using the L7007 LIVE/DEAD Bacterial Viability kit (Molecular Probes, Eugene OR, USA); microbes were grown in M9 medium. Images were acquired on a Leica SP8 confocal microscope, running LASX acquisition software. The magnification consisted of a 63 X 1.4 NA objective. Microbes were counted using ImageJ software. Error calculations were based on three repetitions, with each experiment scanned at nine different tiles—all together, 27 repetitions.
Live/dead fluorescence cell imaging experiments were used to indicate bacterial viability when incubated with the peptides. This method also helped to determine whether the decrease in the growth rate described above resulted from deceleration in E. coli growth or its substantial death. E coli were grown to the late […] phase (according to the growth rate lines; Figs B to D in S1 File) in the presence of the peptides in poor medium (M9), which mostly resembles physiological conditions.[52–54] Glucose levels in the growth media were sufficient to prevent bacterial viability loss due to lack of nutrition, yet not too high to positively affect its viability. […] However, the effect of the peptides was not as substantial as the commercially available antibiotic kanamycin. […] 5 ± 4.3% and up to 45.3 ± 4.3% reduction at a concentration of 125 μM.
Fig 4 Effect of the test peptides on E. coli viability. […]

Substance: AKIQG [pep8]
- decrease in O.D. (600 nm) ([1]; peptide 50 μM): 45.5 ± 4.8%
- decrease in O.D. (600 nm) ([1]; peptide 100 μM): 63.6 ± 4.0%
- r, radius of bacteria killing formed over petri dishes by peptide-solution discs ([2]; disc solution 50 µM in 0.85% NaCl): 0 mm
- r, radius of bacteria killing formed over petri dishes by peptide-solution discs ([2]; disc solution 75 µM in 0.85% NaCl): 0.5 mm
- r, radius of bacteria killing formed over petri dishes by peptide-solution discs ([2]; disc solution 100 µM in 0.85% NaCl): 0.5 mm
- r, radius of bacteria killing formed over petri dishes by peptide-solution discs ([2]; disc solution 125 µM in 0.85% NaCl): 1 mm
- reduction of bacterial viability [3]: 41 ±5.15%
